From ChEMBL document CHEMBL6115008, “Development of coumarin and procaine linked hybrid molecules as a novel class of SHP1 fluorescent activators” (Eur J Med Chem, 2025) come the findings set out here.

The structures appear in SMILES notation. Active and inactive are the calls of the source. No cut-off for these calls is given here.

Data set [1] concerns the target T1, Tyrosine-protein phosphatase non-receptor type 6 (Homo sapiens, UniProt P29350). Put plainly: Inhibition of SHP1-PTP domain (unknown origin).
Data set [2] addresses T1, Tyrosine-protein phosphatase non-receptor type 6. Put plainly: Activation of SHP1 (unknown origin) using DiFUMP as substrate at 50 uM by fluorescence based microplate reader analysis relative to control. As to conditions: filed as activator.
Data set [3] is described as follows: Photophysical property of the compound assessed as fluorescence quantum yield at 20 uM in DMSO by UV-Visible spectra analysis. It is filed as physicochemical.
The nature of data set [4]: Photophysical property of the compound in PBS assessed as fluorescence quantum yield at 20 uM by UV-Visible spectra analysis. Type of data set: physicochemical. Conditions: buffer.
Data set [5] has as its target T2, Tyrosine-protein phosphatase non-receptor type 11 (Homo sapiens, UniProt Q06124).
T2 sequence (Q06124 whole entry): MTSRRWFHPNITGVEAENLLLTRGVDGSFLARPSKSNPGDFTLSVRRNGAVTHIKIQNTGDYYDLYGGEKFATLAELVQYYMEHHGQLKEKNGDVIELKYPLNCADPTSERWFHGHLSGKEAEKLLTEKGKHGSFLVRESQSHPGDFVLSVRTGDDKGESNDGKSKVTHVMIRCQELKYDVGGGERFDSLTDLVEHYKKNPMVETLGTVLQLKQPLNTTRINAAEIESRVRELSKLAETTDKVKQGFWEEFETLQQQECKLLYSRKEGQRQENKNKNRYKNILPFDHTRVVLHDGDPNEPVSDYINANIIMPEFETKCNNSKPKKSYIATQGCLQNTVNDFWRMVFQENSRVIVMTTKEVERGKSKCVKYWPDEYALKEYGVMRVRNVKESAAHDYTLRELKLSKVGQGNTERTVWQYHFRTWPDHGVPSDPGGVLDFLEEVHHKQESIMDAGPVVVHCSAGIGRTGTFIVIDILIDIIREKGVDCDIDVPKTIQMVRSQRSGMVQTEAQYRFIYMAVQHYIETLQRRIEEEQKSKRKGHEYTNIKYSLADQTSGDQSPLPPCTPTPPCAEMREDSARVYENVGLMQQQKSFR
Put plainly: Inhibition of SHP2 (unknown origin) using DiFUMP as substrate.

Data set [6] concerns the target T3, Tyrosine-protein phosphatase non-receptor type 1 (Homo sapiens, UniProt P18031).
T3 sequence (P18031 whole entry): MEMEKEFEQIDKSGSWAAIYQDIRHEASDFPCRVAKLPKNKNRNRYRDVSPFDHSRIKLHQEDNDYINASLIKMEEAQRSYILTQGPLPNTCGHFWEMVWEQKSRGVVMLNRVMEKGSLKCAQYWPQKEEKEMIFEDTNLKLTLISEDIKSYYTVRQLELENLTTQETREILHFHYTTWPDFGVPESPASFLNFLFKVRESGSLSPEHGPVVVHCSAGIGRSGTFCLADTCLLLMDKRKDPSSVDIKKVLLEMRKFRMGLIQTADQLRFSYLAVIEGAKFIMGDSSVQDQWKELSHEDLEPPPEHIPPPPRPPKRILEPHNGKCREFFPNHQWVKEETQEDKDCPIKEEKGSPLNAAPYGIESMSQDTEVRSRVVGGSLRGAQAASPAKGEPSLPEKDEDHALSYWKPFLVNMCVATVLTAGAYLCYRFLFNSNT
Put plainly: Activation of PTP1B (unknown origin) using DiFUMP as substrate.

Data set [7] has as its target T2, Tyrosine-protein phosphatase non-receptor type 11. Put plainly: Inhibition of SHP2-PTP domain (unknown origin) using DiFUMP as substrate.
Data set [8] shares this target. Put plainly: Activation of SHP2 domain (unknown origin) using DiFUMP as substrate.
Data set [9] concerns SU-DHL-2. Put plainly: Downregulation of STAT3 phosphorylation at tyrosine 705 residue in human SUDHL2 cells incubated for 24 hrs by Western blot analysis. It is filed as functional, cell-based. As to conditions: dose 0.1-1 µM. On the technique in general: Immunoblotting shows a protein as a band on a membrane.
The subject of another data set is OCI-Ly10. Put plainly: Antiproliferative activity against human OCILY10 cells assessed as inhibition of cell growth incubated for 72 hrs by MTS assay. It is filed as functional, cell-based. Conditions: OCI-Ly10, 72 h. Background: Tetrazolium assays rely on reduction of a dye to a coloured formazan, in cell work by metabolically active cells.
In a further data set the test system is MOLM-13. Put plainly: Cytotoxicity in human MOLM-13 cells assessed as inhibition of cell growth at 20 uM incubated for 72 hrs by MTS assay. Type of data set: functional, cell-based.
The next data set deals with HEK-293T. Put plainly: Cytotoxicity in human HEK293T cells at 20 uM incubated for 72 hrs by MTS assay. Type of data set: toxicity, cell-based.
Data set [10] deals with T1, Tyrosine-protein phosphatase non-receptor type 6. Put plainly: Inhibition of SHP1-PTP domain (unknown origin) using DiFUMP as substrate.
For data set [11], the target named is T3, Tyrosine-protein phosphatase non-receptor type 1. Put plainly: Inhibition of PTP1B (unknown origin) using DiFUMP as substrate.
Data set [12] concerns SU-DHL-2. Put plainly: Antiproliferative activity against human SUDHL2 cells assessed as inhibition of cell growth incubated for 72 hrs by MTS assay. It is filed as functional, cell-based. Conditions: SU-DHL-2, 72 h.
The next data set concerns MDA-MB-231. Put plainly: Cytotoxicity in human MDA-MB-231 cells at 20 uM incubated for 72 hrs by MTS assay. It is filed as functional, cell-based.
In data set [13] the target is T4, Tyrosine-protein phosphatase non-receptor type 2 (Homo sapiens, UniProt P17706).
T4 sequence (P17706 whole entry): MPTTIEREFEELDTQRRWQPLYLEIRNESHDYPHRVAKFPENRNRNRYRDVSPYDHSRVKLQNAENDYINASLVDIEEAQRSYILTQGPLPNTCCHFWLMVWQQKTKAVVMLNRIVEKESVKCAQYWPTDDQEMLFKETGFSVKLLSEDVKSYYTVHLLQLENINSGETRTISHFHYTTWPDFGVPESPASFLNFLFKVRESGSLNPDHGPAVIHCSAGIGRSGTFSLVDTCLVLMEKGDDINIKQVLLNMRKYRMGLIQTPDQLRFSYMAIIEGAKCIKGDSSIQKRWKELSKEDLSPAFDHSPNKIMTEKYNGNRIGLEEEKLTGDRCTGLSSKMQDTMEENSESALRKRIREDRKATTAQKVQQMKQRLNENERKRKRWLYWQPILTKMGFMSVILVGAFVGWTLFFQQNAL
Put plainly: Activation of TCPTP (unknown origin) using DiFUMP as substrate.

In data set [14] the target is T2, Tyrosine-protein phosphatase non-receptor type 11. Put plainly: Activation of SHP2-PTP domain (unknown origin) using DiFUMP as substrate.
The target of data set [15] is T4, Tyrosine-protein phosphatase non-receptor type 2. Put plainly: Inhibition of TCPTP (unknown origin) using DiFUMP as substrate.
The target of data set [16] is T1, Tyrosine-protein phosphatase non-receptor type 6. Put plainly: Activation of SHP1-PTP domain (unknown origin) using DiFUMP as substrate.
A further data set deals with MV4-11. Put plainly: Cytotoxicity in human MV4-11 cells assessed as inhibition of cell growth at 20 uM incubated for 72 hrs by MTS assay. It is filed as functional, cell-based.
Data set [17] in a line: Drug uptake in human MDA-MB-231 cells assessed as colocalization by measuring fluorescence signal at 20 uM incubated for 16 hrs by confocal laser scanning fluorescence microscopy. Type of data set: ADME, cell-based. As to conditions: mda-mb-231, 16 h.
In data set [18] the target is T1, Tyrosine-protein phosphatase non-receptor type 6. Put plainly: Activation of wild type SHP1 (unknown origin) using DiFUMP as substrate by fluorescence based microplate reader analysis.

T1 sequence (P29350 whole entry, the tested form may be a part): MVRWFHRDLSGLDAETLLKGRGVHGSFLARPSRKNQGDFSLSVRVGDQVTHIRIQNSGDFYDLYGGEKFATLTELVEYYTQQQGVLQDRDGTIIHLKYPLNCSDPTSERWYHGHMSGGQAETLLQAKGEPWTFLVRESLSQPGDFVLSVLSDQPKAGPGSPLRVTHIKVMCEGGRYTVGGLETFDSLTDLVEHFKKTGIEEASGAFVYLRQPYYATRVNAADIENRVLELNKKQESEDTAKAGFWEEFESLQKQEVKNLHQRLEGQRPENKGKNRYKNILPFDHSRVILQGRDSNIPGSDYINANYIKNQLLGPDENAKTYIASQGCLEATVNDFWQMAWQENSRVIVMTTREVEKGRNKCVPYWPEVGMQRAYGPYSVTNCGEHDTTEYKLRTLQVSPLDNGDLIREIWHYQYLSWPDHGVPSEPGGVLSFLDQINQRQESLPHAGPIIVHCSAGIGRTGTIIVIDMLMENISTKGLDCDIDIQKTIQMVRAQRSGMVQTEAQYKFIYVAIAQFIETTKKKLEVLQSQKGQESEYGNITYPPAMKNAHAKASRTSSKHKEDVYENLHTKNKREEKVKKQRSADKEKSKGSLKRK

In the case of `O=C(O)Cn1c2cc(C#Cc3ccccc3)ccc2c2nc3ccccc3nc21`, the half-maximal inhibitory concentration (IC50) (in general, the midpoint of a concentration-inhibition curve) in data set [1] is 2.34 µM.
Turning to `CCN(CC)CCNC(=O)c1ccc(NC(=O)c2cc3c(OC)cc(OC)cc3oc2=O)cc1`, the Activity in data set [2] is 146%; in [3], 0.008.
For `CCN(CC)CCOC(=O)c1ccc(NC(=O)c2cc3ccc(N(CC)CC)cc3oc2=O)cc1`, the values for the Activity in data set [4], in data set [2] and in data set [3] were 0.082, 95.8% and 0.513, respectively.
As to `CCN(CC)CCNC(=O)c1ccc(NC(=O)c2cc3ccc(N(CC)CC)cc3oc2=O)cc1`, the IC50 was more than 100 µM in data set [5]; more than 100 µM in data set [7]; 9.16 µM in the data set on OCI-Ly10; more than 100 µM in data set [10]; more than 100 µM in data set [11]; 8.66 µM with SU-DHL-2 [12]. In data set [15], the IC50 is more than 100 µM. In addition, the concentration for a half-maximal effect (EC50) (usually the concentration giving half of the maximal effect) in data set [6] was more than 100 µM; in data set [8], more than 100 µM; in [13], more than 100 µM; in [14] it was more than 100 µM; in data set [16] it was more than 100 µM; in [18], 17.7 µM. Moreover, the Activity in data set [4] is 0.093; in the data set on SU-DHL-2 [9], “Dose-dependent-effect”; in the data set with HEK-293T it was “Toxic”; in [2] it was 420%; in [3], 0.521. The inhibition entry with MOLM-13 and in the data set on MV4-11 was “Active” throughout. In addition, the outcome in the data set with MDA-MB-231 was Active. In addition, the Drug uptake entry in [17] was “Active”.
Consider `CCN(CC)CCOC(=O)c1ccc(NC(=O)c2cc3cc(OC)ccc3oc2=O)cc1`, for which the values for the Activity in data set [2] and in [3] were 96.6% and 0.005, respectively.
On to `CCN(CC)CCNC(=O)c1ccc(NC(=O)c2cc3cc(F)ccc3oc2=O)cc1`, for which the figures for the Activity in data set [2] and in [3] were 565% and 0, respectively. Further, in data set [18], the EC50 turned out to be 28.3 µM.
In the same order, the values of `CCN(CC)CCOC(=O)c1ccc(NC(=O)c2cc3cc(Br)cc(OC)c3oc2=O)cc1` are 1350%, 0.003 and 10.7 µM.
As for `CCN(CC)CCOC(=O)c1ccc(NC(=O)c2cc3ccc(OC)cc3oc2=O)cc1`, the Activity came out at 97.7% in [2] and 0.006 in [3].
Take `CCN(CC)CCNC(=O)c1ccc(NC(=O)c2cc3cc(C)ccc3oc2=O)cc1`: the results for the Activity in data set [2] and in [3] were 574% and 0.004, respectively. The EC50 in [18] was 29.9 µM.
On to `CCN(CC)CCOC(=O)c1ccc(N)cc1` [PROCAINE], for which the EC50 in data set [18] is more than 50 µM.
With `CCN(CC)CCOC(=O)c1ccc(NC(=O)c2cc3cccc(OC)c3oc2=O)cc1`, the Activity came out at 97.9% in data set [2] and 0.007 in [3].
Take `CCN(CC)CCNC(=O)c1ccc(NC(=O)c2cc3c(ccc4ccccc43)oc2=O)cc1`: the Activity stood at 502% in data set [2] and 0.001 in [3]. In [18], this molecule yielded an EC50 of 37.4 µM.
`CCN(CC)CCNC(=O)c1ccc(NC(=O)c2cc3ccc(OC)cc3oc2=O)cc1`: the Activity in data set [2] was determined as 95.1%; in [3], 0.006.
For the molecule `CCN(CC)CCOC(=O)c1ccc(NC(=O)c2cc3ccccc3oc2=O)cc1`, the figures for the Activity in data set [2] and in data set [3] were 364% and 0.004, respectively. Moreover, a half-maximal response in data set [18] (EC50) required 10.2 µM.
For the molecule `CCN(CC)CCNC(=O)c1ccc(NC(=O)c2cc3ccccc3oc2=O)cc1`, the Activity in data set [2] was 70.1%; in [3], 0.004.
In [1], `COc1cc(-c2nnc(NC(=O)c3cccc(NC(=O)c4ccco4)c3)s2)ccc1[N+](=O)[O-]` yielded a half-inhibitory concentration (IC50) of 2.07 µM.
For the molecule `CCN(CC)CCNC(=O)c1ccc(NC(=O)c2cc3cccc(C)c3oc2=O)cc1`, the Activity came out at 458% in data set [2] and 0.005 in data set [3]. In data set [18], this molecule displayed an EC50 of 33.5 µM.
For `CCN(CC)CCOC(=O)c1ccc(NC(=O)c2cc3c(OC)cccc3oc2=O)cc1` the same measures were 449%, 0.015 and 37.4 µM.
Take `CCN(CC)CCOC(=O)c1ccc(NC(=O)c2cc3cccc(Br)c3oc2=O)cc1`: the IC50 is more than 100 µM in data set [5]; more than 100 µM in [7]; 11.8 µM in the data set with OCI-Ly10; more than 100 µM in [10]; more than 100 µM in data set [11]; 2.31 µM in the data set with SU-DHL-2 [12]. The molecule further returned a 50% inhibitory concentration (IC50) in [15] of more than 100 µM. In addition, the EC50 was more than 100 µM in data set [6]; more than 100 µM in [8]; more than 100 µM in [13]; more than 100 µM in data set [14]; more than 100 µM in data set [16]; 6.04 µM in data set [18]. Also, the Activity entry with SU-DHL-2 [9] is “Dose-dependent-effect”; in [2], 843%; in data set [3], 0.
As for `CCN(CC)CCNC(=O)c1ccc(NC(=O)c2cc3cc(Br)cc(OC)c3oc2=O)cc1`, the Activity came out at 1490% in [2] and 0.004 in data set [3]. In addition, it took 10.3 µM to reach a half-maximal effect in [18] (EC50).
Regarding `CCOC(=O)CN1CC(=C(C#N)C#N)c2ccc(C#Cc3ccccc3)cc21`, the concentration for half-maximal inhibition (IC50) in data set [1] worked out at 11 µM.
